Results as given in patent publication US11279712B2, “Macrocyclic compounds that inhibit MCL-1 protein” (AMGEN INC., priority 2017, dated 2022).

Key:
[1] = biological target: Mcl-1/Bim interaction (recombinant human Mcl-1 residues 171-327) (Homo sapiens (Human), UniProt Q07820); test: Cell Free Mcl-1:Bim Affinity Assay (Mcl-1 HTRF); type: binding; conditions: TR-FRET, 0.1 nM Mcl-1(171-327), 0.05 nM biotin-Bim(51-76)
Description: Cell Free Mcl-1:Bim Affinity Assay (Mcl-1 HTRF)
The inhibition of the Mcl-1/Bim interaction was measured using a time-resolved fluorescence resonance energy transfer (TR-FRET) assay. The recombinant human Mcl-1 (C-terminally 6×His tagged Mcl-1 containing residues 171-327) was generated at Amgen Inc (Thousand Oaks, Calif.). A biotinylated peptide derived from human Bim (residues 51-76) was purchased from CPC Scientific (San Jose, Calif.). The TR-FRET assay was conducted in a 384-well white OptiPlate™ (PerkinElmer, Waltham, Mass.) in a total volume of 40 μL. The reaction mixture contained 0.1 nM Mcl-1(171-327), 0.05 nM biotin-Bim(51-76), 0.05 nM LANCES Eu-W1024 Anti-6×His (PerkinElmer), 0.072 nM Streptavidin-Xlent (Cisbio, Bedford, Mass.), and serially diluted test compounds in the binding buffer of 20 mM Hepes, pH 7.5, 150 mM NaCl, 0.016 mM Brij®35, and 1 mM dithiothreitol. Test compounds were pre-incubated with Mcl-1(171-327) and biotin-Bim (51-76) for 60 min before addition of the detection mixture (LANCE® Eu-W1024 Anti-6×His and Streptavidin-Xlent). The reaction plates were further incubated overnight and then were read on an Envision® multimode reader (PerkinElmer). Fluorescence signals were measured at 620 nm (40-nm bandwidth) and 665 nm (7.5-nm bandwidth) with a 60 μs delay after excitation at 320 nm (75-nm bandwidth). The signal ratio at 665/620 nm corresponded to the Mcl-1/Bim interaction and was used in all data analyses. The IC50 values of test compounds were determined from duplicate data by analyzing competition curves using a four-parameter sigmoidal model in GraphPad Prism (GraphPad Software, San Diego, Calif.) or in Genedata Screener® (Genedata, Basel, Switzerland).

[2] = system: OPM-2 human multiple myeloma cell line; test: Cell Viability Assay (OPM-2 10 FBS); type: cell-based; conditions: OPM-2 cells, 16 h, CellTiter-Glo, read-out: OPM-2 10% FBS IC50 IP
Description: Cell Viability Assay (OPM-2 10 FBS)
The human multiple myeloma cell line, OPM-2, was cultured in complete growth medium containing RPMI 1640 and 10% fetal bovine serum (FBS). Cells were seeded into 384-well plates at 3000 cells/well density in complete growth medium containing 10% FBS, and incubated for 16 h with serially diluted test compounds in a 37° C. incubator with 5% CO2. Cell viability was tested using CellTiter-Glo® assay (Promega, Madison, Wis.) according to the manufacturer recommendations. Luminescence was determined using an EnVision® Multilabel plate reader 25 min after the addition of detection reagent. IC50 values were then calculated with Xlfit using a logistical 4-parameter fit model in GraphPad Prism (GraphPad Software, San Diego, Calif.) or in Genedata Screener® (Genedata, Basel, Switzerland).

Sequence of Mcl-1/Bim interaction (recombinant human Mcl-1 residues 171-327) (Q07820 171-327): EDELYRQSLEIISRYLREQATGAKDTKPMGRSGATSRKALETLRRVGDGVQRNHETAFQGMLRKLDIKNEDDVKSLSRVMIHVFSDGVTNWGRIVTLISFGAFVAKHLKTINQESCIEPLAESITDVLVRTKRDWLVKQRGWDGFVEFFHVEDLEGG

With `COCCN1CCN(C[C@H]2CCC[C@H](C)[C@@H](C)S(=O)(=O)NC(=O)c3ccc4c(c3)N(C[C@@H]3CC[C@@H]23)C[C@@]2(CCCc3cc(Cl)ccc32)CO4)CC1` (single isomer, unassigned) [Example 39] the IC50 [1] was 0.829 nM and the IC50 [2] was 535 nM.
With `C[C@@H]1[C@@H](C)CCC[C@H]([C@@H](C)O)[C@@H]2CC[C@H]2CN2C[C@@]3(CCCc4cc(Cl)ccc43)COc3ccc(cc32)C(=O)NS1(=O)=O` (single isomer, unassigned) [Example 40] the IC50 [1] was 0.822 nM and the IC50 [2] was 564 nM.
For `C[C@@H]1[C@@H](C)CCC[C@H](CS(C)(=O)=O)[C@@H]2CC[C@H]2CN2C[C@@]3(CCCc4cc(Cl)ccc43)COc3ccc(cc32)C(=O)NS1(=O)=O` (single isomer, unassigned) [Example 41], the IC50 [1] was 0.284 nM and the IC50 [2] was 567 nM.
Work on `C[C@@H]1CS(=O)(=O)NC(=O)c2ccc3c(c2)N(C[C@@H]2CC[C@H]2[C@@H](CO)CC[C@@H]1C)C[C@@]1(CCCc2cc(Cl)ccc21)CO3` (single isomer, unassigned) [Example 43] yielded an IC50 [1] of 0.268 nM and an IC50 [2] of 599 nM.
In the case of `C[C@@H]1[C@@H](C)CCC[C@@H](CS(C)(=O)=O)[C@@H]2CC[C@H]2CN2C[C@@]3(CCCc4cc(Cl)ccc43)COc3ccc(cc32)C(=O)NS1(=O)=O` (single isomer, unassigned) [Example 44], the IC50 [1] is reported as 0.502 nM and the IC50 [2] is reported as 617 nM.
Work on `CC(=O)[C@@H]1CCC[C@H](C)[C@@H](C)S(=O)(=O)NC(=O)c2ccc3c(c2)N(C[C@@H]2CC[C@H]21)C[C@@]1(CCCc2cc(Cl)ccc21)CO3` (single isomer, unassigned) [Example 45] yielded an IC50 [1] of 0.338 nM and an IC50 [2] of 675 nM.
In the case of `C[C@@H]1[C@@H](C)CCC[C@H](CN2CCOCC2)[C@@H]2CC[C@H]2CN2C[C@@]3(CCCc4cc(Cl)ccc43)COc3ccc(cc32)C(=O)NS1(=O)=O` (single isomer, unassigned) [Example 46], the IC50 [1] is reported as 0.743 nM and the IC50 [2] is reported as 724 nM.
`C[C@@H]1[C@@H](C)CCC[C@@H]([C@@H](O)C(F)(F)F)[C@@H]2CC[C@H]2CN2C[C@@]3(CCCc4cc(Cl)ccc43)COc3ccc(cc32)C(=O)NS1(=O)=O` (single isomer, unassigned) [Example 47] gave an IC50 [1] of 1.61 nM and an IC50 [2] of 756 nM.
`CC(=O)N1CCN2CCN(C[C@H]3CCC[C@H](C)[C@@H](C)S(=O)(=O)NC(=O)c4ccc5c(c4)N(C[C@@H]4CC[C@@H]34)C[C@@]3(CCCc4cc(Cl)ccc43)CO5)C[C@H]2C1` (single isomer, unassigned) [Example 48] was tested, and the IC50 [1] was 0.329 nM and the IC50 [2] was 768 nM.
`CC[C@@H](O)[C@@H]1/C=C/C[C@H](C)[C@@H](C)S(=O)(=O)NC(=O)c2ccc3c(c2)N(C[C@@H]2CC[C@H]21)C[C@@]1(CCCc2cc(Cl)ccc21)CO3` (single isomer, unassigned) [Example 49] was tested, and the IC50 [1] was 0.377 nM and the IC50 [2] was 778 nM.
With `C[C@@H]1[C@@H](C)CCC[C@H](CN2CC3(CCCN3C)C2)[C@@H]2CC[C@H]2CN2C[C@@]3(CCCc4cc(Cl)ccc43)COc3ccc(cc32)C(=O)NS1(=O)=O` (single isomer, unassigned) [Example 50] the IC50 [1] was 0.923 nM and the IC50 [2] was 785 nM.
With `C[C@H]1CCC[C@H](CO)[C@@H]2CC[C@H]2CN2C[C@@]3(CCCc4cc(Cl)ccc43)COc3ccc(cc32)C(=O)NS(=O)(=O)C1` (single isomer, unassigned) [Example 51] the IC50 [1] was 0.222 nM and the IC50 [2] was 936 nM.
Compound `C[C@@H]1[C@@H](C)CCC[C@H](C(=O)O)[C@@H]2CC[C@H]2CN2C[C@@]3(CCCc4cc(Cl)ccc43)COc3ccc(cc32)C(=O)NS1(=O)=O` (single isomer, unassigned) [Example 52] has an IC50 [1] of 0.107 nM and an IC50 [2] of 939 nM.
`CC[C@@H](O)[C@H]1/C=C/C[C@H](C)[C@@H](C)S(=O)(=O)NC(=O)c2ccc3c(c2)N(C[C@@H]2CC[C@H]21)C[C@@]1(CCCc2cc(Cl)ccc21)CO3` (single isomer, unassigned) [Example 54] gave an IC50 [1] of 0.624 nM and an IC50 [2] of 989 nM.
